# Reference: patent publication US9261497B2, “Method of treating cancer with modulators of SCFSkp2” (New York University, priority 2012, dated 2016)
# Assays:
# SCF-Skp2 (Skp2-Cks1) = molecular target: T1, SCF-Skp2 (Skp2-Cks1) (Homo sapiens, UniProt P61024+Q13309); assay: In vitro ubiquitylation assay, Skp2-mediated p27 ubiquitylation (Wild-Type Cks1); type: biochemical; details: 50 μM compound, immunoblot for p27-(Ub)n
# T1 construct: made in house; host or cells: cell-free: rabbit reticulocyte lysate (TNT T7 Coupled Reticulocyte Lysate System, Promega) from pcDNA3.1 plasmids
# T1 sequence (Q13309 whole entry): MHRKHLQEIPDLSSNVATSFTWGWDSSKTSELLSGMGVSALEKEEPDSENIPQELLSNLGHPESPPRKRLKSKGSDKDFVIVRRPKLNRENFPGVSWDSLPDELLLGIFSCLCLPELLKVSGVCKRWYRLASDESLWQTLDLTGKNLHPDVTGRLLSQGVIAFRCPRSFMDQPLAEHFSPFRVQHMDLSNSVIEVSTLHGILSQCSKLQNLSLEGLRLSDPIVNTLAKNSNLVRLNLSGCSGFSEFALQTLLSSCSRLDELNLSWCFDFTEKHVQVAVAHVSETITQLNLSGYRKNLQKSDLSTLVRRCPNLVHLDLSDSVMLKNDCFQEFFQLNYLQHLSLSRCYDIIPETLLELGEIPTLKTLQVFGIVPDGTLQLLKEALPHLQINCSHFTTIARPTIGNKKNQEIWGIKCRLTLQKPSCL
# T1 sequence (P61024 whole entry): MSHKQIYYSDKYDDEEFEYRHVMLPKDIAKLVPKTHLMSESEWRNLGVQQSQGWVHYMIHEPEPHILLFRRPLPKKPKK
# T1 sequence (P63208 whole entry partner): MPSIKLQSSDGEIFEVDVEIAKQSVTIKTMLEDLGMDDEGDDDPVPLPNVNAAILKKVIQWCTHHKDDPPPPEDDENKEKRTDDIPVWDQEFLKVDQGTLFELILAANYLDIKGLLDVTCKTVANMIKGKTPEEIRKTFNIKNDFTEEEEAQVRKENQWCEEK
# T1 sequence (Q13616 whole entry partner): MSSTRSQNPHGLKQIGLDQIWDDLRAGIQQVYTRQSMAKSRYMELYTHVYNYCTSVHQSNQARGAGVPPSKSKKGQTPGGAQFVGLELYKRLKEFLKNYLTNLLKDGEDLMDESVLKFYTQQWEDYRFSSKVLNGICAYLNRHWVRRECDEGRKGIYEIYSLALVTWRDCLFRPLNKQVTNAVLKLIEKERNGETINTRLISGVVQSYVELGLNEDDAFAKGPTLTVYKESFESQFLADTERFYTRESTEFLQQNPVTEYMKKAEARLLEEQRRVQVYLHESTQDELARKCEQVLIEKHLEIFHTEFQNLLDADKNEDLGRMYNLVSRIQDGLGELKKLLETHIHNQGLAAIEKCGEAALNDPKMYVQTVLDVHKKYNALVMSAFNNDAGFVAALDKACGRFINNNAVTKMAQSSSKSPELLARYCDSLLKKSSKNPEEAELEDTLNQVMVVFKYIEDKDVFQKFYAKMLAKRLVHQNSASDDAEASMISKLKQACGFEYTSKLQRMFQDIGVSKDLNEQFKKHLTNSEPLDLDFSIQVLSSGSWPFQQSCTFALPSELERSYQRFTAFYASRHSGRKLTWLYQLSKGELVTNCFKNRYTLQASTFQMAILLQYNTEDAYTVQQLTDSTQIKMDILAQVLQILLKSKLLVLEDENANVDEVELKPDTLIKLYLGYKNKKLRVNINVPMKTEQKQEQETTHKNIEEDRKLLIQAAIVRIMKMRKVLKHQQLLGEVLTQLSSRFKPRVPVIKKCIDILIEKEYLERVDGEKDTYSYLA
# T1 sequence (P62877 whole entry partner): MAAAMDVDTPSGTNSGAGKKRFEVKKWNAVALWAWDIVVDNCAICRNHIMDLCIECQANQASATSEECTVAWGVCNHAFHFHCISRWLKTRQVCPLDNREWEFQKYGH
# Description: The 96 hits were tested in an in vitro ubiquitylation assay driven by in vitro transcribed/translated Skp2, Cks1, and p27 (Sitry et al., “Three Different Binding Sites of Cks1 are Required for p27-ubiquitin Ligation,” J. Biol. Chem. 277:42233-42240 (2002)). Assay sensitivity was established for various criteria (FIG. 1B): Enhanced ubiquitylation with Cks1 (lane 2), kinase activity requirement (lane 3), and responsiveness to known inhibitors of Cullin (lane 5) or Cdk2 (lane 6) activity (Meijer et al., “Biochemical and Cellular Effects of Roscovitine, a Potent and Selective Inhibitor of the Cyclin-dependent Kinases cdc2, cdk2 and cdk5,” Eur. J. Biochem. 243:527-536 (1997); Soucy et al., “An Inhibitor of NEDD8-activating Enzyme as a New Approach to Treat Cancer,” Nature 458:732-736 (2009), which are hereby incorporated by reference in their entirety). Compounds showing at least 50% inhibition of Skp2-mediated p27 ubiquitylation (FIG. 1C) were counter-screened for inactivity against two anti-target E3 ligases: MDM2 and SCF-βTrCP (FIGS. 6A-B). Compounds C1 and C2 were identified from the primary VLS and C16 and C20 were identified from a second VLS (FIG. 2).
# In vitro reconstituted assays were performed as previously described (Dorrello et al., “S6K1- and betaTRCP-mediated Degradation of PDCD4 Promotes Protein Translation and Cell Growth,” Science 314:467-471 (2006), which is hereby incorporated by reference in their entirety) with the exceptions of the use of (1) unlabeled proteins (wild-type and mutant Skp2 and Cks1, p27, Flag-βTrCP, and HA-PDCD4) generated by in vitro transcription-translation (TNT T7 Coupled Reticulocyte Lysate System, Promega); (2) chain elongation with non-methylated ubiquitin; and (3) immunoblotting to detect poly-ubiquitylation. The following reagents were obtained from Boston Biochem: UBE1, His-UbcH3, His-UbcH5c, Ubiquitin, and Ubiquitin Aldehyde. Additional reagents include CDK2/CyclinE1 (Sigma-Aldrich), S6K (Invitrogen), Okadaic acid (Sigma), and DMSO (Sigma-Aldrich). For ubiquitin charging, UBE1 (100 nM) and His-UbcH3 (10 ng/μl) were incubated with ubiquitin (2.5 μg/μl), ATP (2 mM), and 10 μM […] of inhibitors or Vehicle control for 60 min at 30° C. Reactions were stopped in nondenaturing 2× Sample Buffer, with the addition of 10% Beta-mercaptoethanol as indicated, and analyzed by Western blotting.
# Ubc3 = molecular target: T2, Ubc3 (Homo sapiens, UniProt P49427); assay: E2 ubiquitin charging (Ubc3~Ub conjugates); type: biochemical; details: 50 μM inhibitor
# T2 construct: purchased Boston Biochem
# T2 sequence (P49427 1-236): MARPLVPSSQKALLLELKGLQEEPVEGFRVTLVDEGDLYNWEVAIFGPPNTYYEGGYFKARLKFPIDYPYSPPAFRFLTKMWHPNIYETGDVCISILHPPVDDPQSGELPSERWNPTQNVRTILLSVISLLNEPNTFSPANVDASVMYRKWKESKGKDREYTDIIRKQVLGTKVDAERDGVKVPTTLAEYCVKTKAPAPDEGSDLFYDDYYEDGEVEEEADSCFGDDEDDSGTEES
# Description: In vitro reconstituted assays were performed as previously described (Dorrello et al., “S6K1- and betaTRCP-mediated Degradation of PDCD4 Promotes Protein Translation and Cell Growth,” Science 314:467-471 (2006), which is hereby incorporated by reference in their entirety) with the exceptions of the use of (1) unlabeled proteins (wild-type and mutant Skp2 and Cks1, p27, Flag-βTrCP, and HA-PDCD4) generated by in vitro transcription-translation (TNT T7 Coupled Reticulocyte Lysate System, Promega); (2) chain elongation with non-methylated ubiquitin; and (3) immunoblotting to detect poly-ubiquitylation. The following reagents were obtained from Boston Biochem: UBE1, His-UbcH3, His-UbcH5c, Ubiquitin, and Ubiquitin Aldehyde. Additional reagents include CDK2/CyclinE1 (Sigma-Aldrich), S6K (Invitrogen), Okadaic acid (Sigma), and DMSO (Sigma-Aldrich). […] Reactions were stopped in nondenaturing 2× Sample Buffer, with the addition of 10% Beta-mercaptoethanol as indicated, and analyzed by Western blotting.
# p27 in ECC-1 cells = assay: p27 immunoblot in ECC-1 cells (whole cell lysates, nuclear and cytoplasmic fractions); details: ECC-1; for p27 increase over control at optimal concentration: 10 μM (FIG. 11B); for Nuclear p27 increase over the control in presence of E2: 10 μM compound plus 1 nM E2; for Nuclear p27 increase over the control in presence of E2 / Decrease of cytoplasmic p27 levels: 18 h (FIG. 14C); for p27 protein levels over Vehicle control: 10 μM for 18 h, whole cell lysates (FIG. 11A); for Decrease of cytoplasmic p27 levels: 10 μM; for Increase of nuclear p27 compared to Vehicle control: nuclear fraction (FIG. 11C)
# Description: The endometrial carcinoma cell line (derived from a well-differentiated endometrioid Type I ECA) ECC-1 cells (ATCC, Manassas, Va.) were plated at a density of 3×10^5/well/6-well plate and grown in DMEM:F12 supplemented with 10% FBS (BioWest, Ocala, Fla.). The cell line was passaged in the laboratory for fewer than 6 months after receipt. […] ECAs were plated at a density of 2.2×10^6 cells/6-well Primaria® plates (BD Biosciences, San Jose, Calif.) in McCoys 5A media without phenol red containing 10% charcoal-stripped FBS, 2 mM L-Glutamine (Invitrogen) and antimycotic antibiotic solution (Mediatech, Hendon, Va.).
# For subcellular fractionation, following treatments, cells were separated into nuclear and cytoplasmic fractions using the NE-PER kit (Thermo Scientific), and 10 μg cytoplasmic and nuclear protein fractions were loaded onto SDS-PAGE for immunoblotting. […] The membranes were incubated with peroxidase-conjugated goat anti-rabbit or goat anti-mouse secondary antibodies in TBST (1:2000; Thermo Scientific). […] Protein bands were resolved using the SuperSignal West Dura kit (Thermo Scientific), visualized by exposure to X-ray film (HyBlot; Denville Scientific, Denville, N.J.), and following densitometric scanning (Kodak Logic-100), the protein bands were quantified by normalizing to β-actin and compared to the untreated control, and the values represented by the graphs of relative protein levels compared to actin in each well and shown as % of Vehicle control.
# Caspase 3 in ECC-1 cells = assay: ECC-1 apoptosis (Caspase 3 cleavage immunoblot); type: cell-based, human; details: 10 μM, 18 h
# Description: Whole cell lysates were prepared in ice cold RIPA buffer (50 mM Tris-HCL, 150 mM NaCl, 0.25% sodium deoxycholate, 1% NP-40 and 1 mM EDTA) containing 1 mM Na3VO4, pH 7.4) and 1× Protease Inhibitor Cocktail (Sigma Chem, St Louis, Mo.). Following freezing and thawing once, and soluble proteins obtained by centrifugation at 14,000×g for 10 min at 4° C. Protein concentrations were quantified (BCA kit, Thermo Scientific, Rockland, Ill.) and 20 μg protein in Laemmli buffer were subjected to SDS-PAGE (12.5% polyacrylamide) and immunoblotted using anti-p27 and anti-Skp2 antibodies to probe protein levels, as described (Lecanda et al., “TGFbeta Prevents Proteasomal Degradation of the Cyclin-dependent Kinase Inhibitor p27kip1 for Cell Cycle Arrest,” Cell Cycle 8:742-756 (2009), which is hereby incorporated by reference in its entirety). For subcellular fractionation, following treatments, cells were separated into nuclear and cytoplasmic fractions using the NE-PER kit (Thermo Scientific), and 10 μg cytoplasmic and nuclear protein fractions were loaded onto SDS-PAGE for immunoblotting. Following protein transfer onto nitrocellulose membranes, the membrane was blocked with 5% non-fat dry milk in TBS containing 0.1% Tween 20 (TBST) for 1 h, incubated overnight with mouse anti-human p27 (1:1000, Clone 57, BD Transduction Labs) or mouse anti-human p45/Skp2 (1:1000, Clone 8D9, Invitrogen, Grand Island, N.Y.) or rabbit anti-human Caspase-3 antibody (1:500, Clone 8G10, Cell Signaling Technology (Danvers, Mass.)). Purity of the subcellular fractions was confirmed using mouse anti-human α-tubulin (1:10,000, Clone B-5-1-2, Sigma) for cytoplasmic or rabbit anti-human Sp1 (1:1000, Clone H-225, Santa Cruz Biotechnology, Santa Cruz, Calif.) for nuclear fractions. The membranes were incubated with peroxidase-conjugated goat anti-rabbit or goat anti-mouse secondary antibodies in TBST (1:2000; Thermo Scientific).
Structure (SMILES),Inhibition of Skp2-mediated p27 ubiquitylation (SCF-Skp2 (Skp2-Cks1)),E2 charging (Ubc3~Ub) (Ubc3),Levels of Skp2 (p27 in ECC-1 cells),p27 increase over control at optimal concentration (p27 in ECC-1 cells),Nuclear p27 increase over the control in presence of E2 (p27 in ECC-1 cells),p27 protein levels over Vehicle control (p27 in ECC-1 cells),Decrease of cytoplasmic p27 levels (p27 in ECC-1 cells),Increase of nuclear p27 compared to Vehicle control (p27 in ECC-1 cells; 18 h),"Concentration inducing p27 to the same level as the proteasome inhibitor (p27 in ECC-1 cells; 24 hours, compared to 1 μM Lactacystin)","Cytoplasm p27, time course (p27 in ECC-1 cells; by 18 h (FIG. 15A))","Nuclear p27, time course (p27 in ECC-1 cells; by 18 h (FIG. 15A))",Caspase 3 cleavage (apoptosis) (Caspase 3 in ECC-1 cells),"Increase of cytoplasm p27 (p27 in ECC-1 cells; 18 h, cytoplasmic fraction (FIG. 11C))"
O=C(O)COc1ccc(Br)cc1C=C1SC(=S)N(Cc2cccnc2)C1=O [Compound C1],active,unaffected,–,–,–,–,–,–,–,–,–,–,–
COC(=O)C1=C(C)N(c2ccc(Br)cc2)C(=O)C1=Cc1ccccc1O [Compound C2],strongly inhibited,unaffected,do not effect the levels of Skp2,2.3,~2 fold,increase p27 protein levels,approximately 33%,1.8 fold,≤ 0.1 µM,half,doubled,activate caspase 3 to a similar extent as the control,–
O=C(O)COc1ccc(C=C2SC(=O)N(CC(=O)c3ccc(Cl)cc3)C2=O)cc1 [Compound C16],active,unaffected,–,–,–,increase p27 protein levels,–,2.2 fold,–,–,–,shows cleavage of caspase 3,2.7 fold
O=C(NN=Cc1cc(Br)cc(Br)c1O)C(=Cc1ccccc1O)NC(=O)c1ccccc1 [Compound C20],strongly inhibited,unaffected,do not effect the levels of Skp2,2.2,~2 fold,increase p27 protein levels,approximately 33%,2.2 fold,–,–,–,activate caspase 3 to a similar extent as the control,–
